From patent US6500866B1, “1-(adamantyl)amidines and their use in the treatment of conditions generally associated with abnormalities in glutamatergic transmission” (Vernalis Research Limited, priority 1997, dated 2002)
Counter-ions that a name gives are not always drawn.

Legend:
[1] = target: PCP site of the NMDA receptor (cortical); assay: [3H]-MK-801 binding, PCP site of NMDA receptor, rat cortical membranes; details: rat cortex membranes, [3H]-MK-801 5 nM, 10 μM glutamate, 10 μM glycine
Excerpt: (§1) The NMDA receptor contains several distinct binding domains that can regulate opening of the cationic channel. The phencyclidine (PCP) site of the NMDA receptor can be radiolabeled with [^3H]-(+)-5-methyl-10,11-dihydro-5H-dibenzo[a,d]cyclohepten-5,10-imine hydrogen maleate, [^3H-MK-801]. The following describes the procedure for determining the affinity of compounds for the PCP site in rat cortical or cerebellar membranes.
(§2) Frozen rat cortex or cerebellum, homogenized in 10 volumes of ice cold 0.32 M. sucrose is centrifuged at 1,000 g for 12 min and the supernatant stored on ice whilst the pellet was resuspended, rehomogenized and recentrifuged twice more. The three final supernatants were pooled and centrifuged at 30,000 g for 40 min at 4° C. to yield P2 pellets. These were resuspended in ice-cold distilled water, and centrifuged at 30,000 g for 50 min at 4° C. Following three further washes in distilled water, the P2 pellets were stored at −20° C. for at least 18 h. On the day of the assay, membrane pellets were thawed at room temperature, resuspended in ice-cold distilled water and centrifuged at 30,000 g for 20 min. The pellets were resuspended in 50 mM tris-HCl (pH:7.4) and recentrifuged twice more before being resuspended in tris-HCl for immediate use in the assay. Binding assays were performed at equilibrium in a total volume of 200 μl, containing, [^3H]-MK-801 (5 nM final conc.), 10 μM glutamate, 10 μM glycine, 160 μl of membrane preparation and additional drugs where appropriate. Non-specific binding was determined using MK-801 (10 μM). The assay was incubated for 120 min at room temperature. The incubation was terminated by rapid filtration through Whatman GF/B filters (pre-soaked in 0.1% PEI solution). The assay tubes and filters were washed five times with 1 ml of ice cold assay buffer. The filters were placed in poly-Q mini vials with approximately 5 ml of scintillation fluid. The vials are then shaken and left for at least 8 hours before being counted on a liquid scintillation counter. To determine the free ligand concentration 3 aliquots (20 μl) of the [^3H]-MK-801 working solution were also counted. Concentration response data for drugs was analysed using a 4 parameter equation fitted by non linear regression. This yielded the half maximally effective drug concentration (IC50) and Hill coefficient.

[2] = target: T1, PCP site of the NMDA receptor (cerebellar); assay: [3H]-MK-801 binding, PCP site of NMDA receptor, rat cerebellar membranes; details: rat cerebellum membranes, [3H]-MK-801 5 nM, 10 μM glutamate, 10 μM glycine
T1 construct: IC50(μM) Cerebellum; other: rat cerebellum membranes, [3H]-MK-801 5 nM, 10 μM glutamate, 10 μM glycine
Excerpt: as §1, §2

[3] = tested on: PCP site of the NMDA receptor (cerebellar); assay: as above; details: IC50 cortex / IC50 cerebellum
Excerpt: as §1, §2

SMILES	melting point	IC50 [1]	IC50 [2]	Ratio of cortical to cerebellar binding affinity [3]
Cl.N=C(N)C(Cc1ccccc1)C12CC3CC(CC(C3)C1)C2 (centres unmarked) [Example 16, 2-(1-Adamantyl)-3-phenylpropanimidamide hydrochloride]		52 µM	27 µM	1.9
Cl.N=C(N)C12CC3CC(C1)CC(c1ccc([N+](=O)[O-])cc1)(C3)C2 [Example 14, 3-(4-Nitrophenyl)-1-adamantanecarboximidamide hydrochloride]		406 µM	234 µM	1.7
CC12CC3(C)CC(C)(C1)CC(C(=N)N)(C2)C3.Cl [Example 13, 3,5,7-Trimethyl-1-adamantanecarboximidamide hydrochloride]		43 µM	18 µM	2.4
CC12CC3CC(C)(C1)CC(CC(=N)N)(C3)C2 (as salt: hydrochloride) [Example 5, 3,5-Dimethyl-1-adamantaneacetiniidamide hydrochloride]	252 to 253 °C			
CC12CC3CC(C)(C1)CC(CC(=N)N)(C3)C2 [Example 5, 3,5-Dimethyl-1-adamantaneacetiniidamide hydrochloride]		82 µM	56 µM	1.5
CC12CC3CC(C1)CC(C(=N)N)(C3)C2.Cl [Example 12, 3-Methyl-1-adamantanecarboximidamide hydrochloride]		96 µM	36 µM	2.7
N=C(N)CC(c1ccccc1)C12CC3CC(CC(C3)C1)C2 (centres unmarked) [Example 18, 3-(1-Adamantyl)-3-phenylpropanimidamide hydrochloride]		27 µM		

Now from value to compound, other results behind:

melting point	SMILES	IC50 [1]	IC50 [2]	Ratio of cortical to cerebellar binding affinity [3]
246 to 248 °C	CC12CC3CC(C)(C1)CC(CCC(=N)N)(C3)C2 (as salt: hydrochloride) [Example 11, 3-(3,5-Dimethyl-1-adamantyl)propanimidamide hydrochloride]			
242 to 244 °C	N=C(NCc1ccccc1)C12CC3CC(CC(C3)C1)C2 (as salt: hydrochloride) [Example 9, N-Benzyl-1-adamantanecarboximidamide hydrochloride]			
221 to 223 °C	N=C(N)C12CC3CC(CC(Br)(C3)C1)C2 (as salt: hydrochloride) [Example 3, 3-Bromo-1-adamantanecarboximidamide hydrochloride]			
293 °C (dec.)	CN(C)CCNC(=N)C12CC3CC(CC(C3)C1)C2 (as salt: hydrochloride) [Example 10, N-(2-Dimethylaminoethyl)-1-adamantanecarboximidamide dihydrochloride]			
252 to 254 °C	C=CCNC(=N)C12CC3CC(CC(C3)C1)C2 (as salt: hydrochloride) [Example 7, N-Allyl-1-adamantanecarboximidamide hydrochloride]			
222 to 224 °C	C=CCNC(=N)C12CC3CC(C)(CC(C)(C3)C1)C2 (as salt: hydrochloride) [Example 6, N-Allyl-3,5-dimethyl-1-adamantanecarboximidamide hydrochloride]			
315 °C (dec.)	CCNC(=N)C12CC3CC(CC(C3)C1)C2 (as salt: hydrochloride) [Example 8, N-Ethyl-1-adamantanecarboximidainide hydrochloride]			
210 to 212 °C	CCC12CC3CC(C1)CC(C(=N)N)(C3)C2 (as salt: hydrochloride) [Example 4, 3-Ethyl-1-adamantanecarboximidamide hydrochloride]			
215 to 216 °C	N=C(N)C12CC3CC(CC(Cl)(C3)C1)C2 (as salt: hydrochloride) [Example 2, 3-Chloro-1-adamantanecarboximidamide hydrochloride]			
